One block for each compound: values may come before it. Where a SMILES comes first, the peptide text is derived from it. Where no end group is shown, it is not given here. [ ]: non-standard residue; d: D form. The star is where a group is joined. d2Nal = N[C@H](Cc1ccc2ccccc2c1)C(=O)O; Octanoyl = CCCCCCCC(=O)*; Dap = NC[C@H](N)C(=O)O
Tests used:
GOAT = target: T1, GOAT (Homo sapiens, UniProt Q96T53); assay: Acyl Transferase activity of GOAT in vitro; assay type: biochemical
T1 sequence (Q96T53 1-435): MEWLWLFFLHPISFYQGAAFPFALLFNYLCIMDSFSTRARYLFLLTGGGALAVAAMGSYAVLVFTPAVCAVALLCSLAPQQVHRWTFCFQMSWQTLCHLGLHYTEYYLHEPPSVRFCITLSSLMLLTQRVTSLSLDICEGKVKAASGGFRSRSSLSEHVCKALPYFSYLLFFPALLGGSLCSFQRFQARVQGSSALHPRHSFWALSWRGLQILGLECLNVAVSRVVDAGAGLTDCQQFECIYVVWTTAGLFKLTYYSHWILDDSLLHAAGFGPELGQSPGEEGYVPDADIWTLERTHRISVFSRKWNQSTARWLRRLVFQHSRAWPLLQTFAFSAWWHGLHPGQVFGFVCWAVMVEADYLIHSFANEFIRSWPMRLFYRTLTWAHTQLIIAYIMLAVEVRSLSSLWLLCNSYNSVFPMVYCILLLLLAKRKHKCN

[1] = target: T2, hypothalamic ghrelin receptor (Rattus norvegicus, UniProt O08725); assay: Spontaneous and ghrelin-stimulated GH secretion after icv ghrelin analogs in adult male rats; assay type: in vivo; parameters: from tissue; host or cells: whole animal (adult male rats); conditions: for spontaneous growth hormone secretion / plasma GH levels: ghrelin analog 10 μg icv, 6-h sampling
Experimental: (§1) In vivo effects were measured on spontaneous and ghrelin-stimulated GH secrtion over a 6-h sampling period, and food intake monitored hourly over a 5-h period and body weight change over 24 h.

[2] = target: T2, hypothalamic ghrelin receptor; assay: Food intake and body weight change after icv ghrelin analogs in adult male rats; assay type: in vivo; parameters: from tissue; host or cells: whole animal (adult male rats); conditions: ghrelin analog 10 μg icv; for body weight gain: change over 24 h; for (cumulative) food intake: monitored hourly over 5 h
Experimental: as §1

[3] = target: Ghrelin/GHRP/GHS Receptor (Rattus norvegicus, UniProt O08725); assay: In vivo GH release in rat after i.v. peptide (serum GH by RIA)
Experimental: For the in vivo assay of GH Release in rat, immature female Sprague Dawley rats were obtained from Charles River from Wilmington, Mass. After arrival they were housed at 25° C. with a 14:10 h light:dark cycle. Water and Purina rat chow were available at libitum. Pups were weaned at 21 days of age.
Immature twenty six day old female Sprague Dawley rats, 3-6 rats per treatment dose, were pretreated with pentobarbital 20 minutes before iv injection of vehicle/peptide or peptide plus stimulator. Injection was made as a 0.1 ml solution. For the non-pentobarbital treated rat assay, peptides were administered iv into the tail vein of conscious rats. All animals were sacrificed by guillotine after iv peptide or vehicle. Trunk blood was collected at +10-15 minutes […], allowed to clot, centrifuged and serum stored until assayed for GH levels by RIA. The GH RIA reagents were distributed by the NIH. Control data was collected from rats treated with only the corresponding vehicle in the absence of peptide or stimulator. Control stimulated data was collected from rats treated with stimulator alone in the absence of any peptide.

GHS-R 1a [4] = target: T3, GHS-R 1a (Rattus norvegicus, UniProt O08725); assay: Ghrelin-induced GH release in free-moving adult male rats; assay type: in vivo; conditions: for GH response to i.c.v. ghrelin: 5 μg antagonist i.c.v. 15 min before 500 ng ghrelin i.c.v.
T3 construct: free-moving rats were i.c.v. injected with either normal saline or GHS-A (5 μg); from tissue; host or cells: whole animal (adult male Sprague Dawley rats)
Experimental: Adult male Sprague Dawley rats (225-260 g) were purchased from Charles River Canada (St. Constant, Canada) and individually housed on a 12-h light, 12-h dark cycle (lights on, 0600-1800 h) in a temperature (22±1° C.)—and humidity-controlled room. Purina rat chow (Ralston Purina Co., St. Louis, Mo.) and tap water were available ad libitum. Chronic intracerebroventricular (i.c.v.) and intracardiac venous cannulas were implanted under sodium pentobarbital (50 mg/kg, i.p.) anesthesia using previously described techniques in (2) and (11). […] During this time the rats were handled daily to minimize any stress associated with handling on the day of the experiment. On the test day, food was removed 1.5 h before the start of sampling and was returned at the end. […] Both the human ghrelin peptide (provided by Dr. K. Chang, Phoenix Pharmaceuticals, Inc., Belmont, Calif.) and the GHS-A were diluted in normal saline just before use. Blood samples (0.35 ml) were withdrawn every 15 min over a 6-h sampling period (1000-1600 h) from all animals. […] All blood samples were immediately centrifuged, and plasma was separated and stored at −20° C. for subsequent assay of GH. To avoid hemodynamic disturbance, the red blood cells were resuspended in normal saline and returned to the animal after removal of the next blood sample. […] Blood samples were withdrawn from 1000-1600 h, as described above.

GHS-R 1a [5] = target: T3, GHS-R 1a; assay: Spontaneous pulsatile GH secretion in free-moving adult male rats; assay type: in vivo
Experimental: Adult male Sprague Dawley rats (225-260 g) were purchased from Charles River Canada (St. Constant, Canada) and individually housed on a 12-h light, 12-h dark cycle (lights on, 0600-1800 h) in a temperature (22±1° C.)—and humidity-controlled room. Purina rat chow (Ralston Purina Co., St. Louis, Mo.) and tap water were available ad libitum.
Chronic intracerebroventricular (i.c.v.) and intracardiac venous cannulas were implanted under sodium pentobarbital (50 mg/kg, i.p.) anesthesia using previously described techniques in (2) and (11). The placement of the icy cannulae was verified by both a positive drinking response to i.c.v. carbachol (100 ng/10 μl) injection on the day after surgery and methylene blue dye at the time of death. After surgery, the rats were placed directly in isolation test chambers with food and H2O freely available until body weight returned to preoperative levels (usually within 5-7 d). During this time the rats were handled daily to minimize any stress associated with handling on the day of the experiment. On the test day, food was removed 1.5 h before the start of sampling and was returned at the end.
These time points were chosen because they correspond closely to the time of onset of the spontaneous GH secretory episodes, as previously documented in our laboratory (2, 4). Blood samples were withdrawn from 1000-1600 h, as described above; however, no blood sample was withdrawn 5 min after the injections.

GHS-R 1a [6] = target: T3, GHS-R 1a; assay: Spontaneous and ghrelin-induced food intake in rats; assay type: in vivo
Experimental: The effects of the GHS-A on both spontaneous and ghrelin-induced food intake and body weight gain were investigated. For the spontaneous experiments, the rats were fasted overnight (1600-1100 h next morning) and were i.c.v.-injected with either normal saline or GHS-A (5 μg) at 1100 h. Food intake was monitored on an hourly basis for 5 h after the initial injection (until 1600 h) and subsequently overnight (1600-0900 h next morning). A measured amount of rat chow pellets was placed in the cage every hour. Spillage was collected by placement of a diaper under the rat cages, and total food consumed for each period was calculated by subtracting uneaten food plus spillage from total given. Body weights were recorded daily at 0900 h. The latency to the onset of the first meal after the injection and the duration of that meal were also monitored.
Food intake was monitored on an hourly basis as described above. In this experiment, food was removed 1.5 h before the start of the test.

GHRH = assay: GH response to GHRH in rats; assay type: in vivo, rat; conditions: GHRH 5 μg i.v.
[7] = listed as Gly-Met-Ala-Gly-Ser-(Dap-Oct)-Phe-Leu-Ser-Pro-Glu-His-NH2
[8] = listed as GMA{Dap^3Oct}ghrelinNH2 1-9
[9] = 5 μg i.c.v. before ghrelin 500 ng i.c.v.
[10] = 5 μg i.c.v., overnight-fasted animals

T2 sequence (O08725 whole entry): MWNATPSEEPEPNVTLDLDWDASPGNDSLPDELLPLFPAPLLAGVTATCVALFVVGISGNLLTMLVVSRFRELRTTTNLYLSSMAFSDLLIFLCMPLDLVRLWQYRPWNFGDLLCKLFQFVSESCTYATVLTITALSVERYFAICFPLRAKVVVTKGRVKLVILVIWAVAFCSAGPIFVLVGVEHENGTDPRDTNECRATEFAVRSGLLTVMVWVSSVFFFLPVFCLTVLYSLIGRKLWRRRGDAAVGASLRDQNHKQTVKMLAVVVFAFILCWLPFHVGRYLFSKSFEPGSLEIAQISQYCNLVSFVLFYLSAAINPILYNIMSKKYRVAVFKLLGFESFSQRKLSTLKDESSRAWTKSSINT
T3 sequence (O08725 whole entry): as above
Chain of Ghrelin/GHRP/GHS Receptor (O08725 whole entry): as above

inhibition of the Acyl Transferase activity of GOAT (GOAT): ineffective
decrease in mean plasma GH levels compared with controls ([1]; central administration): 3-to-4 fold
spontaneous growth hormone secretion / plasma GH levels [1]: inhibited growth hormone secretion
spontaneous growth hormone secretion / plasma GH levels ([1]; listed as GMA duodecapeptide ghrelin analog): inhibitory activity
spontaneous growth hormone secretion / plasma GH levels [1, 7]: inhibited
stimulatory action of ghrelin on GH release after pretreatment ([1]; pretreatment with analog): blocked
Compound: CCCCCCCC(=O)NC[C@H](NC(=O)[C@H](CO)NC(=O)CNC(=O)[C@H](C)NC(=O)[C@H](CCSC)NC(=O)CN)C(=O)N[C@@H](Cc1ccccc1)C(=O)N[C@@H](CC(C)C)C(=O)N[C@@H](CO)C(=O)N1CCC[C@H]1C(=O)N[C@@H](CCC(=O)O)C(=O)N[C@@H](Cc1c[nH]cn1)C(N)=O [#3, Gly-Met-Ala-Gly-Ser-(Dap-Oct)-Phe-Leu-Ser-Pro-Glu-His-NH2] (H-GMAGS[Dap](Octanoyl)FLSPEH-NH2; N-terminus assumed)
body weight gain [2, 8]: inhibits
body weight gain ([2]; listed as duodecapeptide): effective
(cumulative) food intake [2]: inhibited food intake
(cumulative) food intake [2, 8]: inhibits
(cumulative) food intake [2, 7]: reduced
(cumulative) food intake ([2]; listed as duodecapeptide): effective

Stimulated GH release ([3]; peptide antagonist 30 μg i.v. + stimulator 0.3 μg): 733 ± 85 ng/mL
Stimulated GH release ([3]; peptide antagonist 100 μg i.v. + stimulator 1 μg): 818 ± 269 ng/mL
GH response to i.c.v. ghrelin (GHS-R 1a [4]): virtually obliterated
GH response to i.c.v. ghrelin (GHS-R 1a [4]; listed as GHS-A): abolished
reduction of GH AUC following i.c.v. ghrelin vs saline-pretreated controls (GHS-R 1a [4]; 5 μg i.c.v. pretreatment, ghrelin 500 ng i.c.v.): 15 fold
GH response to i.v. ghrelin (GHS-R 1a [4]; 250 μg antagonist i.v. 15 min before 5 μg ghrelin i.v., listed as GHS-A): strongly blocked
reduction of GH AUC following i.v. ghrelin vs saline-pretreated controls (GHS-R 1a [4]; 250 μg i.v. pretreatment, ghrelin 5 μg i.v.): 5 fold
1-h GH AUC's of spontaneous GH secretory episodes (1100 h, 1400 h) and overall 6-h GH AUC (GHS-R 1a [5]; 5 μg i.c.v.): significantly reduced
GH peak frequency, interpeak interval and nadir (cluster analysis) (GHS-R 1a [5]; 5 μg i.c.v.): no significant effect
GH peak height (cluster analysis) (GHS-R 1a [5]; 5 μg i.c.v.): significant suppression
amplitude of the spontaneous GH pulses (GHS-R 1a [5]; 5 μg i.c.v. 15 min before expected GH bursts): severely attenuated
cumulative food intake after ghrelin, up to 5 h (GHS-R 1a [6]; [9]): significantly suppressed
ghrelin-stimulated food intake, first hour after injections (GHS-R 1a [6]; [9]): significantly inhibited
cumulative spontaneous food intake beyond the first hour (GHS-R 1a [6]; [10]): not inhibited
spontaneous food intake, first hour after injection (GHS-R 1a [6]; [10]): significantly inhibited
Compound: H[d2Nal][dK]W[dF]K-NH2 [4-His-DβNal-DLys-Trp-DPhe-Lys-NH2]
GH response to GHRH (GHRH): did not significantly reduce

— patent publication US9315546B2, “Growth hormone secretatogue receptor antagonists and uses thereof” (The Administrators of the Tulane Educational Fund, priority 2010, dated 2016)
